Test results as given in patent US20080039442A1, “Compounds With Kv4 Ion Channel Activity” (Devgen NV, priority 2004, published 2008).
Where two headings read alike, the source gives them in different places.

Columns and labels:
[1] = biological target: T1, human Kv4.3/KChIP2.2 potassium channel (Homo sapiens, UniProt Q9UK17); experiment: Whole cell patch clamp, CHO-K1 cells stably expressing Kv4.3/KChIP2.2; assay type: cell-based; settings: CHO-K1, 1 μM
T1 construct: expressed in transfected cells
T1 sequence (Q9UK17 1-655): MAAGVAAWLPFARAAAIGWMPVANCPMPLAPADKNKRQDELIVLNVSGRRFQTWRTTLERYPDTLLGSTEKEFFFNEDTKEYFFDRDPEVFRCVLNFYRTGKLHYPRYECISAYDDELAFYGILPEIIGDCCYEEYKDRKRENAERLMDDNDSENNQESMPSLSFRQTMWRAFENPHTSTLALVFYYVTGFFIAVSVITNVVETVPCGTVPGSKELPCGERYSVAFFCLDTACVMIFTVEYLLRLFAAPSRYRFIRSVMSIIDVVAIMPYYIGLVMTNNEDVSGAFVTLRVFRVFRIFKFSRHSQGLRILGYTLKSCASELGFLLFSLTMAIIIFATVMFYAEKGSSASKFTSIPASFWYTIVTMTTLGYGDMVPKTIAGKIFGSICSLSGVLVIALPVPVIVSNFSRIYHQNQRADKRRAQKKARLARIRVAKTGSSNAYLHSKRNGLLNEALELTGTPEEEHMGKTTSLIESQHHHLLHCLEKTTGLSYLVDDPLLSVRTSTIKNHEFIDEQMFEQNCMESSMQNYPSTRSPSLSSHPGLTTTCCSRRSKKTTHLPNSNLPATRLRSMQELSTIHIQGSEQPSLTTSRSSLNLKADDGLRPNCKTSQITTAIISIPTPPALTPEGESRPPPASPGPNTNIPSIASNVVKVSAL
T1 sequence (Q9NS61 1-270 partner): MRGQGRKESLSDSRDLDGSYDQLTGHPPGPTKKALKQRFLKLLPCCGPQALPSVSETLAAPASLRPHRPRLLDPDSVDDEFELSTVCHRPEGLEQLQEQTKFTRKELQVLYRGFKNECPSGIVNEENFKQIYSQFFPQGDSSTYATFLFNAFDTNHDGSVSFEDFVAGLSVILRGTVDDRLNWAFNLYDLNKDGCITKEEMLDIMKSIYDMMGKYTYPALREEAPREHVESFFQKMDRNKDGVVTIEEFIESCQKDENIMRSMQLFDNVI
Procedure: For this experiment, a recombinant CHO-K1 cell line stably expressing the human Kv4.3/KChIP2.2 potassium channel was used.
Protocol B: The cells were cultured in 94 mm culture dishes under the culturing conditions of 5% CO2 and 37° C. Subculturing was performed every 3-4 days, by removing the media and then rising the dish with 8 ml PBS (phosphate buffered saline). The PBS was removed and 1 ml Trypsin/EDTA was added to the cells. The cells were incubated about 2 min at 37° C. or 5 min at room temperature and then the dish was rapped to detach and singularize the cells. To inactivate the enzyme 9 ml of media was added and the solution was pipetted up and down to break up clumps of cells. Part of the suspension was then transferred to a new 94 mm dish and media was added to a final volume of 8 ml. If necessary the cells could be seeded onto 35 mm or 94 mm dishes (2 ml media per 35 mm dish and 8 ml media per 94 mm dish). The media was changed every 2-3 days. The media used was the solution for culturing the cells described above. For stable cells antibiotic G418, Hygromycin, Blasticidin, or Zeocin were not added.
The preparation of cells for electrophysiological experiments was performed as described in protocol C hereunder.
Protocol C: The transfected cells and stable cells were transferred from 35 mm cell culture dishes onto coverslips using cold PBS: The media was removed and 0.3 ml of PBS (4-10° C.) was added. The cells were incubated 5 min at room temperature. The dish was rapped to detach and singularize the cells and 1.7 ml media was added and the solution pipetted up and down to break up clumps of cells. Part of the cell suspension was then transferred to a 35 mm dish with coverslips and media. The transfected cells and stable cells could also be transferred from 35 mm cell culture dishes onto coverslips using trypsin: The media was removed and the dish rinsed with 3 ml PBS. The PBS was removed and 0.3 ml 1× Trypsin/EDTA was added and the cells incubated 5 min at room temperature. The dish was rapped to detach and singularize the cells and 1.7 ml media was added and the solution pipetted up and down to break up clumps of cells. Part of the cell suspension was then transferred to a 35 mm dish with coverslips and media.
10 mM stock solutions of the compounds were prepared in DMSO. Solutions of the compounds were prepared by dilution of stock solution in bath solution. If the required stock solution volume was theoretically below 1 μl, bath solutions with higher compound concentration were used for dilution. The maximal DMSO concentration during experiments was 0.1% (v/v).
For patch clamp experiments, the following solutions in demineralized water as vehicle were used (concentration in mM).
Bath (external) solution: 4 KCl, 135 NaCl, 2 CaCl2, 1 MgCl2, 10 D(+)-Glucose, 5 HEPES, pH 7.4 (NaOH).
Pipette (internal) solution: 130 KCl, 1 MgCl2, 10 EGTA, 5 Na2ATP, 5 HEPES, pH 7.4 (KOH).
Experiments were performed using a patch clamp set-up.
Measurements were performed at room temperature (20-25° C.). […] Each cell acted as its own control. The effect of compounds on Kv4.3/KChIP2.2 mediated currents was investigated at one concentration ([…]) with two replicates each (c=1, n=2).
The test protocols are illustrated in FIG. 1 and Table 4. […] Each test protocol consisted of 4 segments.
Subsequently, 14 test pulses (series 1; FIG. 1b and Table 4b) were applied at 0.1 Hz under constant superfusion with bath solution. The protocol was initiated by a voltage jump to −100 mV (400 ms) to achieve full inactivation. Then the Kv4.3/KChIP2.2 channels were transferred to the open state by depolarization to +40 mV for 300 milliseconds (activation). Only cells generating current amplitudes between 1 nA and 50 nA were used for the experimental procedure. No or negligible rundown was observed.
Then, 36 test pulses (series 2) were applied at 0.1 Hz under constant superfusion with the compound dissolved in bath solution. […]

[2] = read-out: Kv4.3 charge in %: remaining current measured after application of the compound and relative to the blank
[3] = read-out: Kv4.3 peak in %: remaining peak height measured after application of the compound and relative to the blank

remaining activity at 1 µM [1, 2]	remaining activity at 1 µM [1, 3]	melting point	Compound
86%	99%	148.2 to 150.3 °C	COc1ccc(CNC(=O)c2cc3c(C(C)=O)ccc(OC)c3o2)c(OC)c1 [Compound 13, 4-acetyl-7-methoxy-benzofuran-2-carboxylic acid 2,4-dimethoxy-benzylamide]
90%	100%	126.4 to 128.2 °C	COc1ccc(CC(=O)Nc2cc3ccccc3o2)c(OC)c1 [Compound 22, N-benzofuran-2-yl-2-(2,4-dimethoxy-phenyl)-acetamide]
85%	102%	161.6 to 163.3 °C	COc1ccc(NC(=O)c2cc3cc(Cl)ccc3o2)c(OC)c1 [Compound 24, 5-chloro-benzofuran-2-carboxylic acid (2,4-dimethoxy-phenyl)-amide]
82%	100%	190.2 to 190.5 °C	O=C(NC1Cc2ccccc2C1)c1cc2cc(Cl)ccc2o1 [Compound 25, 5-chloro-benzofuran-2-carboxylic acid indan-2-ylamide]
81%	99%	187.1 to 188.5 °C	O=C(c1cc2cc(Cl)ccc2o1)N1Cc2ccccc2C1 [Compound 26, (5-chloro-benzofuran-2-yl)-(1,3-dihydro-isoindol-2-yl)-methanone]
59%	86%	127.7 to 129.1 °C	O=C(c1cc2cc(Cl)ccc2o1)N1CCc2ccccc2C1 [Compound 27, (5-chloro-benzofuran-2-yl)-(3,4-dihydro-1H-isoquinolin-2-yl)-methanone]
		147.9 °C	COC(=O)[C@H](NC(=O)c1cc2cc(Cl)ccc2o1)c1ccccc1 [Compound 84, (R)-[(5-chloro-benzofuran-2-carbonyl)-amino]-phenyl-acetic acid methyl ester]
		76.5 to 79.1 °C	COC(=O)[C@@H](NC(=O)c1cc2cc(Cl)ccc2o1)c1ccccc1 [Compound 85, (S)[(5-chloro-benzofuran-2-carbonyl)-amino]-phenyl-acetic acid methyl ester]
		125.8 to 127.9 °C	O=C(NCc1ccccc1OC(F)(F)F)c1cc2cc(Cl)ccc2o1 [Compound 87, 5-chloro-benzofuran-2-carboxylic acid 2-trifluoromethoxy-benzylamide]
		133.5 to 137.9 °C	O=C(NCc1cccc(OC(F)(F)F)c1)c1cc2cc(Cl)ccc2o1 [Compound 88, 5-chloro-benzofuran-2-carboxylic acid 3-trifluoromethoxy-benzylamide]
		123.1 to 124 °C	Cc1ccc(C)c(CNC(=O)c2cc3cc(Cl)ccc3o2)c1 [Compound 90, 5-chloro-benzofuran-2-carboxylic acid 2,5-dimethyl-benzylamide]
		178.1 to 181.8 °C	O=C(NCc1ccc(-c2cnns2)cc1)c1cc2cc(Cl)ccc2o1 [Compound 91, 5-chloro-benzofuran-2-carboxylic acid 4-[1,2,3]thiadiazol-5-yl-benzylamide]
		161.4 to 164.1 °C	O=C(NC1CCc2ccccc21)c1cc2cc(Cl)ccc2o1 (centres unmarked) [Compound 94, 5-chloro-benzofuran-2-carboxylic acid indan-1-ylamide]
		146.1 to 147.4 °C	COc1ccccc1C1CCN(C(=O)c2cc3cc(Cl)ccc3o2)CC1 [Compound 95, (5-chloro-benzofuran-2-yl)-[4-(2-methoxy-phenyl)-piperidin-1-yl]-methanone]
		223.8 to 225.6 °C	O=C(Nc1ccc(N2CCOCC2)cc1)c1cc2cc(Cl)ccc2o1 [Compound 99]
		114.6 to 116.2 °C	O=C(c1cc2cc(Cl)ccc2o1)N1CCC(Cc2ccccc2)CC1 [Compound 101, (4-benzyl-piperidin-1-yl)-(5-chloro-benzofuran-2-yl)-methanone]
		135 to 137.1 °C	O=C(c1ccc(F)cc1)C1CCN(C(=O)c2cc3cc(Cl)ccc3o2)CC1 [Compound 102]
		123.3 to 125.4 °C	O=C(c1cc2cc(Cl)ccc2o1)N1CCCC1c1ccccc1 (centres unmarked) [Compound 103, (5-chloro-benzofuran-2-yl)-(2-phenyl-pyrrolidin-1-yl)-methanone]
		104.4 to 106.1 °C	O=C(c1cc2cc(Cl)ccc2o1)N1CCCC1c1ccc(F)cc1 (centres unmarked) [Compound 104, (5-chloro-benzofuran-2-yl)-[2-(4-fluoro-phenyl)-pyrrolidin-1-yl]-methanone]
		180.5 to 182 °C	Cc1cccc(Cl)c1CNC(=O)c1sc2ccc(Cl)cc2c1C [Compound 110, 5-chloro-3-methyl-benzo[b]thiophene-2-carboxylic acid 2-chloro-6-methyl-benzylamide]
		205.7 to 209.3 °C	COc1ccc(CNC(=O)c2cc3cc(Cl)ccc3[nH]2)c(OC)c1 [Compound 111, 5-chloro-1H-indole-2-carboxylic acid 2,4-dimethoxy-benzylamide]
		93.9 to 95.4 °C	COc1ccc(CNC(=O)c2ccc3ccccc3n2)c(OC)c1 [Compound 112, quinolin-2-carboxylic acid 2,4-dimethoxy-benzylamide]
		121.1 to 124.3 °C	O=C(NCC1COc2ccccc2O1)c1cc2cc(Cl)ccc2o1 (centres unmarked) [Compound 113, 5-chloro-benzofuran-2-carboxylic acid (2,3-dihydro-benzo[1,4]dioxin-2-ylmethyl)-amide]
		165.5 to 170.3 °C	COc1ccc(CNC(=O)c2oc3ccc(Cl)cc3c2NC(C)=O)c(OC)c1 [Compound 115, 3-acetylamino-5-chloro-benzofuran-2-carboxylic acid 2,4-dimethoxy-benzylamide]
		159.2 to 162.4 °C	Cc1c(C(=O)NCc2ccc(OC(F)(F)F)cc2)sc2ccc(Cl)cc12 [Compound 117]
		210 to 212 °C	Cc1cc(Cl)cc(Cl)c1CNC(=O)c1cc2cc(Cl)ccc2o1 [Compound 119, 5-chloro-benzofuran-2-carboxylic acid 2,4-dichloro-6-methyl-benzylamide]
